Source: patent US20260183297A1, “SELECTION OF PATIENTS FOR THE TREATMENT OF FADS1-MEDIATED DISEASES OR DISORDERS USING FADS-1 INHIBITORS” (AMGEN INC., priority 2022, published 2026)
Where two headings read alike, the source gives them in different places.

Molecular target: T1, FADS1 (Mus musculus, UniProt Q920L1)
T1 construct: Liver from ^13C5-DGLA dosed DIO mice was collected for pharmacodynamic (PD) analysis; from tissue; host or cells: living DIO C57Bl/6 mice; 13C5-DGLA to 13C5-AA conversion read in liver (A4) or blood plasma (A5)
T1 sequence (Q920L1 1-447): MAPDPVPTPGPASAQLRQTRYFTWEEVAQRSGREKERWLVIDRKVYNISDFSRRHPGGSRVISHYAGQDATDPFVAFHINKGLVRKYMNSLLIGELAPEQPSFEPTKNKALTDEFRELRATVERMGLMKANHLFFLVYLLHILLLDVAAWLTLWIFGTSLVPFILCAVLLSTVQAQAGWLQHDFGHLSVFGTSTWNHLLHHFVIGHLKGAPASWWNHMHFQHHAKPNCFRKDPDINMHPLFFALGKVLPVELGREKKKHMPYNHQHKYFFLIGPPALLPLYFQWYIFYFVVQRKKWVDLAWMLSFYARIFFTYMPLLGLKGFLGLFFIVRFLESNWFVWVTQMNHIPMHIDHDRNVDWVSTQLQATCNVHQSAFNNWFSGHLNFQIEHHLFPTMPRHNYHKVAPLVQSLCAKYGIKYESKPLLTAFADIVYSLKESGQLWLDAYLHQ
Experiment: In vivo FADS1 activity measurement using the liver (13C5-DGLA to 13C5-AA conversion)
Settings: for IC50: liver of DIO mice, unbound plasma concentration, read-out: Free (unbound) in vivo IC50
Description: Mice were then dosed by intraperitoneal injection with a solution comprising of a mixture of 0.1 ml solution of ^13C5-DGLA (2 mM in 18.42 mM Na2CO3 buffer). Necropsy were performed at 30 minutes post ^13C5-DGLA dosing. Liver from ^13C5-DGLA dosed DIO mice was collected for pharmacodynamic (PD) analysis and EDTA plasma was collected for compound exposure determination. For PD analysis, 150 mg of frozen liver tissue were premixed with ALA-D14 as an internal standard. Liver samples were homogenized and extracted twice with chloroform/methanol (2:1) solution. The organic phases for the two extractions were pooled and evaporated to dryness under nitrogen gas. The liver extract was resuspended in 200 μl 2N NaOH and saponified at 65° C. for 1 hour. After cooling to room temperature, 100 μl of formic acid was added and the mixture was subjected to two consecutive extractions with a chloroform:methanol (2:1) solution. The pooled organic phases were evaporated to dryness under nitrogen gas and resuspended in a solution containing acetonitrile and methanol at a ratio of 1:1. The extracts were then analyzed by LC/MS/MS for the following analytes: ^13C5-DGLA, ^13C5-AA, with ALA-d14 as the internal standard. The sample (20 μl) was injected onto a Poroshell 120 EC-C18 3.0×50 mm, 1.9 μm id column (Agilent, Santa Clara, CA). The analyte peak areas were quantified using the Analyst software (SCIEX, Framingham, […]). The residual in vivo FADS1 activity was calculated by taking the percent of substrate to product conversion normalized to the vehicle group to determine the percent of control (POC) and the percent inhibition relative to control (vehicle).
To determine the degree of FADS1 inhibition, the in vivo FADS1 activity as the percent of conversion calculated using the following equation: […]
The data were then normalized to the vehicle group to determine the percent of inhibition relative to control (vehicle) by the following equation: […]
To calculate the in vivo potency, dose response graphs were generated by plotting the plasma concentration of the test compound determined from the PK analysis on the abscissa, against the percent of control (POC, relative to vehicle) of the FADS1 activity for each mouse. The data points were then fitted by using the log(inhibitor) vs response nonlinear regression algorithm using GraphPad Prism (version 8.4.3, San Diego CA) to calculate the in vivo IC50 (total).
Free (unbound) IC50 and IC90 values were calculated by first calculating the unbound compound concentration in the plasma by multiplying the plasma concentration of test compound with the fraction unbound (fu) value in mouse plasma determined in the plasma protein binding study. A dose response curve was used to determine the unbound IC50 and IC90 by plotting the unbound plasma concentration of the compound on the abscissa, against the percent of control (POC, relative to vehicle) of FADS1 activity for each mouse. The data points were then fitted with a log (inhibitor) versus response nonlinear regression algorithm using GraphPad Prism (version 8.4.3, San Diego, CA) to calculate the in vivo IC50 (Free).

[1] = DIO mice, single oral dose 10 mg/kg, 24 hours after dosing
[2] = DIO mice, single oral dose 30 mg/kg, 24 hours after dosing
[3] = mouse, DIO mice, single oral dose 10 mg/kg, 24 hours after dosing, read-out: Liver Avg % Inhibition
[4] = mouse, DIO mice, single oral dose 30 mg/kg, 24 hours after dosing, read-out: Liver Avg % Inhibition

COc1ccn2c(=O)c(-c3cnn(CC(F)(F)C(F)(F)F)c3)c(C(F)(F)F)nc2c1 [Compound A, 8-methoxy-3-(1-(2,2,3,3,3-pentafluoropropyl)-1H-pyrazol-4-yl)-2-(trifluoromethyl)-4H-pyrido[1,2-a]pyrimidin-4-one]
IC50: 2 nM | inhibition at 10 mg/kg (mouse, DIO mice, 10 mg/kg daily oral, after 54 days of treatment, read-out: FADS1 activity inhibited (residual liver FADS1 activity)): 90% | inhibition at 30 mg/kg (mouse, DIO mice, 30 mg/kg daily oral, after 54 days of treatment, read-out: FADS1 activity inhibited (residual liver FADS1 activity)): 93.6%

COc1ccn2c(=O)c(-c3cnn(CC(F)(F)C(F)(F)F)c3)c(C(F)(F)F)nc2n1 [Compound B]
Liver Avg % Conversion [1]: 2.2% | Liver Avg % Conversion [2]: 1.5% | Liver Avg % Conversion (DIO mice, single oral dose 50 mg/kg, 24 hours after dosing): 1.4% | IC50: 4 nM | inhibition at 10 mg/kg [3]: 97.4% | inhibition at 30 mg/kg [4]: 98.2% | inhibition at 50 mg/kg (mouse, DIO mice, single oral dose 50 mg/kg, 24 hours after dosing): 98.3%

N#Cc1ccn2c(=O)c(-c3cnn(CC(F)(F)C(F)(F)F)c3)c(C(F)(F)F)nc2c1 [Compound C]
Liver Avg % Conversion (DIO mice, single oral dose 3 mg/kg, 24 hours after dosing): 14.2% | Liver Avg % Conversion [1]: 4.3% | Liver Avg % Conversion [2]: 1.5% | IC50: 4 nM | inhibition at 3 mg/kg (mouse, DIO mice, single oral dose 3 mg/kg, 24 hours after dosing): 83% | inhibition at 10 mg/kg [3]: 94.8% | inhibition at 30 mg/kg [4]: 98.2%
